{"source": "patent US8455519B2", "about": "“Drug active in neuropathic pain” (Aziende Chimiche Riunite Angelini Francesco A.C.R.A.F. …, priority 2007, dated 2013)", "key": {"[1]": {"molecular_target": "5-HT transporter - SERT (UniProt P31645)", "experiment": "Binding to the serotoninergic receptors", "settings": "purified membranes", "protocol": "(§1) Confirmation of the binding to the serotoninergic receptors was performed by means of the biochemical test on purified membranes from recombinant human cells that stably express the specific receptors or from animal tissues selected as described in particular for each type of serotoninergic receptor, in: Martin G. R. and Humphrey P. P. A. Neuropharmacol. 1994, 33:261; Hoyer D. Eur. J. Pharmacol. 1985, 118:1; Bonhaus DW et al. Br. J. Pharmacol. 1995, 115:622; Wolf WA et al. J. Neurochem. 1997, 69:1449; Boess F G et al. Neuropharmacol. 1997, 36:637; Mialet J et al. Br. J. Pharmacol. 2000; 129:771; Rees S et al. FEBS Lett. 1994, 355:242; Monsma F. J. et al. Mol. Pharmacol. 1993, 43:320; Roth BL et al. J. Pharmacol. Exp. Ther. 1994, 268: 1403; and Shearman L P et al. Am. J. Physiol. 1998, 275: C1621.\n(§2) Confirmation of the binding to the serotoninergic receptors was made using purified membranes from selected animal tissues or from recombinant human cells that stably express the specific receptors, as described in: Martin G. R. and Humphrey P. P. A. Neuropharmacol. 1994, 33:261; Hoyer D. Eur. J. Pharmacol. 1985, 118:1; Bonhaus DW et al. Br. J. Pharmacol. 1995, 115:622; Wolf WA et al. J. Neurochem. 1997, 69:1449; Boess FG et al. Neuropharmacol. 1997, 36:637; Mialet J et al. Br. J. Pharmacol. 2000, 129:771; Rees S et al. FEBS Lett. 1994, 355:242; Monsma F. J. et al. Mol. Pharmacol. 1993, 43:320; Roth BL et al. J. Pharmacol. Exp. Ther. 1994, 268: 1403; and Shearman LP et al. Am. J. Physiol. 1998, 275: C1621."}, "[2]": {"molecular_target": "T1, 5-HT1A (Homo sapiens, UniProt P08908)", "T1 sequence (P08908 1-422)": "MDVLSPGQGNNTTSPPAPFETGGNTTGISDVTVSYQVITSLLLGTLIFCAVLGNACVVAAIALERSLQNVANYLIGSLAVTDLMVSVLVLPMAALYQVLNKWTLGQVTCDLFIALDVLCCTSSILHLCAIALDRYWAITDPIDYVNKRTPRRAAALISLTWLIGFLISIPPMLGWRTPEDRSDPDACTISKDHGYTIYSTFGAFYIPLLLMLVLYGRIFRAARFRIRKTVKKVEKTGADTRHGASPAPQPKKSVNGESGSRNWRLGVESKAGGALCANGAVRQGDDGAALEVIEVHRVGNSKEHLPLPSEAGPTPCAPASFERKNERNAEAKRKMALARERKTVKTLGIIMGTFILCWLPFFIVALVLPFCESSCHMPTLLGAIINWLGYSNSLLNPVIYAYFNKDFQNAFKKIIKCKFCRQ", "experiment": "Binding to the serotoninergic receptors", "settings": "purified membranes", "protocol": "as §1, §2"}, "[3]": {"molecular_target": "T2, 5-HT1B (Rattus norvegicus, UniProt P28564)", "T2 construct": "purified membranes from selected animal tissues; from tissue; host or cells: animal tissue membranes; rat brain inferred from Hoyer 1985", "T2 sequence (P28564 whole entry)": "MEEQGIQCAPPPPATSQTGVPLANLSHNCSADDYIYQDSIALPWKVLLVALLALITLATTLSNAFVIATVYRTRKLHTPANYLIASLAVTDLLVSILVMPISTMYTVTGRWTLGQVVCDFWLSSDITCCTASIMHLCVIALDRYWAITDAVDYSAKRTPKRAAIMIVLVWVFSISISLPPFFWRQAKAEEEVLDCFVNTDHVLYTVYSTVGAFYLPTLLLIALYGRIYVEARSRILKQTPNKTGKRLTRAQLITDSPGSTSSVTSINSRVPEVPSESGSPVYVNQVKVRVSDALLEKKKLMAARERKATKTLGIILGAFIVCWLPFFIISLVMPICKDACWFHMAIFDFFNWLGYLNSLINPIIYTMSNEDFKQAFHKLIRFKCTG", "experiment": "Binding to the serotoninergic receptors", "settings": "purified membranes", "protocol": "as §1, §2"}, "[4]": {"molecular_target": "T3, 5-HT2A (Homo sapiens, UniProt P28223)", "T3 construct": "expressed in transfected cells", "T3 sequence (P28223 whole entry)": "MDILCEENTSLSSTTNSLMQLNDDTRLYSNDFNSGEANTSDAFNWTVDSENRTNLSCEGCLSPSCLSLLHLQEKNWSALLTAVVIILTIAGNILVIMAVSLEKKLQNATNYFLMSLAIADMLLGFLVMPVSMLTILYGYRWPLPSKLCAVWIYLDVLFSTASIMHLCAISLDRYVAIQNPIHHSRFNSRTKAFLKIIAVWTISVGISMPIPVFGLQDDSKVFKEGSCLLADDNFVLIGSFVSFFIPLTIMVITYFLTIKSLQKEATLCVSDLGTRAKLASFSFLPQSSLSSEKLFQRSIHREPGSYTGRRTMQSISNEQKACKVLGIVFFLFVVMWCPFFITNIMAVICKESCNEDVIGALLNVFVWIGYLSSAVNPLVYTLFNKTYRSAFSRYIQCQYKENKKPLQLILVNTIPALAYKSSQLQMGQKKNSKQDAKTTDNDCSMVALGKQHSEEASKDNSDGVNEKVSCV", "experiment": "Binding to the serotoninergic receptors", "settings": "purified membranes", "protocol": "as §1, §2"}, "[5]": {"molecular_target": "T4, 5-HT2B (Homo sapiens, UniProt P41595)", "T4 construct": "expressed in transfected cells", "T4 sequence (P41595 whole entry)": "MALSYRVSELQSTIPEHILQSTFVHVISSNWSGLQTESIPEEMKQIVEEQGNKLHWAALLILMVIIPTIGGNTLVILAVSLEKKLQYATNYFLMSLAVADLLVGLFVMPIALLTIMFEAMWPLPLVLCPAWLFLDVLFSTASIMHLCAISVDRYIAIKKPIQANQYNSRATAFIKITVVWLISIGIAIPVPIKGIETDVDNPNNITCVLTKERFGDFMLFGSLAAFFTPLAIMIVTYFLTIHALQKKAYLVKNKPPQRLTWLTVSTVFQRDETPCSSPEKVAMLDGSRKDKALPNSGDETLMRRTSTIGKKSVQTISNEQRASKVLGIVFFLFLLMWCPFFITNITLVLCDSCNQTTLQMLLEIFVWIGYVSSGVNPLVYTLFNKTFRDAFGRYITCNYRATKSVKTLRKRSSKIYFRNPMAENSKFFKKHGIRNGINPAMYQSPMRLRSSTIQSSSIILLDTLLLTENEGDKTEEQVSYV", "experiment": "Binding to the serotoninergic receptors", "settings": "purified membranes", "protocol": "as §1, §2"}, "[6]": {"molecular_target": "T5, 5-HT2C (UniProt P28335)", "T5 sequence (P28335 1-458)": "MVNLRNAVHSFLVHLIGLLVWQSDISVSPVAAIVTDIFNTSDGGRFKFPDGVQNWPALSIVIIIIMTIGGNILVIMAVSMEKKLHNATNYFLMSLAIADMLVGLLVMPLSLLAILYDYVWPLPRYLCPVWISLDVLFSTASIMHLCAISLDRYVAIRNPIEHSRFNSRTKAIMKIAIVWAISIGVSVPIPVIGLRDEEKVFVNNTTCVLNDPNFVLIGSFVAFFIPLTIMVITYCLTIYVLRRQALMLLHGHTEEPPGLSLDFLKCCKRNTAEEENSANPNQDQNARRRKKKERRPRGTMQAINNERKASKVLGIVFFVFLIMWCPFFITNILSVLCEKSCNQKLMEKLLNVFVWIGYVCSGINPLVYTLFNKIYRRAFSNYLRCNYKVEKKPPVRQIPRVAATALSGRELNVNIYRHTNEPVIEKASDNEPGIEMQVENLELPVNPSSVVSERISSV", "experiment": "Binding to the serotoninergic receptors", "settings": "purified membranes", "protocol": "as §1, §2"}, "[7]": {"molecular_target": "T6, 5-HT3 (UniProt P46098)", "T6 sequence (P46098 1-478)": "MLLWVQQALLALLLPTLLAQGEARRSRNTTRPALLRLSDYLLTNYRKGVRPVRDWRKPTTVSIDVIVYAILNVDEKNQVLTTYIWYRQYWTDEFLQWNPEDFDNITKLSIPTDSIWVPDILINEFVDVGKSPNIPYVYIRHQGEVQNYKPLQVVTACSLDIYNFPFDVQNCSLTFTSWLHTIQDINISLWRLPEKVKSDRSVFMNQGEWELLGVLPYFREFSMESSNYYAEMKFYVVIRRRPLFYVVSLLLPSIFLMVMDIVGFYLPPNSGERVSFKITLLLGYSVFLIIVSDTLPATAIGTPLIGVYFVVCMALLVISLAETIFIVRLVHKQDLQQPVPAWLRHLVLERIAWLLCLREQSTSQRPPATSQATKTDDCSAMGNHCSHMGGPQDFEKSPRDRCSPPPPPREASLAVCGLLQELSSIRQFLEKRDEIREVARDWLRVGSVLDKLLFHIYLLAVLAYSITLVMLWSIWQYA", "experiment": "Binding to the serotoninergic receptors", "settings": "purified membranes", "protocol": "as §1, §2"}, "[8]": {"molecular_target": "T7, 5-HT4 receptor (Homo sapiens, UniProt Q13639)", "T7 construct": "expressed in transfected cells", "T7 sequence (Q13639 1-378 isoform Q13639-5)": "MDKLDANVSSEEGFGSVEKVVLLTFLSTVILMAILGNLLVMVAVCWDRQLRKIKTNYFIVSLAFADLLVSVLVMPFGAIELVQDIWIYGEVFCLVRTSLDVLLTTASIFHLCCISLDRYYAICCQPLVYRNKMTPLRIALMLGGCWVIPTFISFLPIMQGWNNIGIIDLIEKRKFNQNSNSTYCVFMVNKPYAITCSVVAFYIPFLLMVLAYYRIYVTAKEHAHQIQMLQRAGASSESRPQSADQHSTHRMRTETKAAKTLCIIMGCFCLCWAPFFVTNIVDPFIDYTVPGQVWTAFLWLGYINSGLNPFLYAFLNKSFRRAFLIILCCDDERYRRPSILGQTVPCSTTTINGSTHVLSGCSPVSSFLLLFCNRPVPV", "experiment": "Binding to the serotoninergic receptors", "protocol": "as §1, §2"}, "[9]": {"molecular_target": "T8, 5-HT5A (Homo sapiens, UniProt P47898)", "T8 construct": "expressed in transfected cells", "T8 sequence (P47898 whole entry)": "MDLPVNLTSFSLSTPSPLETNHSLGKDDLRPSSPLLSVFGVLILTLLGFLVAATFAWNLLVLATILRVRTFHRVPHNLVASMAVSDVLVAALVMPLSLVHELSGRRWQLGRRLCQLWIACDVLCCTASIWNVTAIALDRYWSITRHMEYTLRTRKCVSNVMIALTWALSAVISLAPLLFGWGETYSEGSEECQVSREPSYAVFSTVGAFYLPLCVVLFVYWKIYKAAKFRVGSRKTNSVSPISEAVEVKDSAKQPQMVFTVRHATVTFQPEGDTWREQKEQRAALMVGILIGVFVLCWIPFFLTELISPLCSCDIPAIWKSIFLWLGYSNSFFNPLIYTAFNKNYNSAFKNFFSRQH", "experiment": "Binding to the serotoninergic receptors", "settings": "purified membranes", "protocol": "as §1, §2"}, "[10]": {"molecular_target": "5-HT6 (UniProt P50406)", "experiment": "Binding to the serotoninergic receptors", "settings": "purified membranes", "protocol": "as §1, §2"}, "[11]": {"molecular_target": "5-HT7 (UniProt P34969)", "sequence (P34969 1-432 limits assumed)": "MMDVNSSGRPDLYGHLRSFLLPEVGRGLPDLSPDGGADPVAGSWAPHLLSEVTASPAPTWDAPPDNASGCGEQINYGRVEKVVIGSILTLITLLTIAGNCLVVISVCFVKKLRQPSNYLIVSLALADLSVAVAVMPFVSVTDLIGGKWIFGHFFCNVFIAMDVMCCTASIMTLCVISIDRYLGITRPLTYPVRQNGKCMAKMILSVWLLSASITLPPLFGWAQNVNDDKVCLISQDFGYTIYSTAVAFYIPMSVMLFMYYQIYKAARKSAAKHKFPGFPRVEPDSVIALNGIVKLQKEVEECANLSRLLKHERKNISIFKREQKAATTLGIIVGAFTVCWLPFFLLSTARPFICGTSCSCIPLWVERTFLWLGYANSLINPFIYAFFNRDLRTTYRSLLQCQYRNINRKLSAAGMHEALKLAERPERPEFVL", "experiment": "Binding to the serotoninergic receptors", "settings": "purified membranes", "protocol": "as §1, §2"}, "[12]": {"molecular_target": "T9, hERG ion channel (Homo sapiens, UniProt Q12809)", "T9 construct": "expressed in transfected cells; host or cells: HEK-293", "T9 sequence (Q12809 whole entry)": "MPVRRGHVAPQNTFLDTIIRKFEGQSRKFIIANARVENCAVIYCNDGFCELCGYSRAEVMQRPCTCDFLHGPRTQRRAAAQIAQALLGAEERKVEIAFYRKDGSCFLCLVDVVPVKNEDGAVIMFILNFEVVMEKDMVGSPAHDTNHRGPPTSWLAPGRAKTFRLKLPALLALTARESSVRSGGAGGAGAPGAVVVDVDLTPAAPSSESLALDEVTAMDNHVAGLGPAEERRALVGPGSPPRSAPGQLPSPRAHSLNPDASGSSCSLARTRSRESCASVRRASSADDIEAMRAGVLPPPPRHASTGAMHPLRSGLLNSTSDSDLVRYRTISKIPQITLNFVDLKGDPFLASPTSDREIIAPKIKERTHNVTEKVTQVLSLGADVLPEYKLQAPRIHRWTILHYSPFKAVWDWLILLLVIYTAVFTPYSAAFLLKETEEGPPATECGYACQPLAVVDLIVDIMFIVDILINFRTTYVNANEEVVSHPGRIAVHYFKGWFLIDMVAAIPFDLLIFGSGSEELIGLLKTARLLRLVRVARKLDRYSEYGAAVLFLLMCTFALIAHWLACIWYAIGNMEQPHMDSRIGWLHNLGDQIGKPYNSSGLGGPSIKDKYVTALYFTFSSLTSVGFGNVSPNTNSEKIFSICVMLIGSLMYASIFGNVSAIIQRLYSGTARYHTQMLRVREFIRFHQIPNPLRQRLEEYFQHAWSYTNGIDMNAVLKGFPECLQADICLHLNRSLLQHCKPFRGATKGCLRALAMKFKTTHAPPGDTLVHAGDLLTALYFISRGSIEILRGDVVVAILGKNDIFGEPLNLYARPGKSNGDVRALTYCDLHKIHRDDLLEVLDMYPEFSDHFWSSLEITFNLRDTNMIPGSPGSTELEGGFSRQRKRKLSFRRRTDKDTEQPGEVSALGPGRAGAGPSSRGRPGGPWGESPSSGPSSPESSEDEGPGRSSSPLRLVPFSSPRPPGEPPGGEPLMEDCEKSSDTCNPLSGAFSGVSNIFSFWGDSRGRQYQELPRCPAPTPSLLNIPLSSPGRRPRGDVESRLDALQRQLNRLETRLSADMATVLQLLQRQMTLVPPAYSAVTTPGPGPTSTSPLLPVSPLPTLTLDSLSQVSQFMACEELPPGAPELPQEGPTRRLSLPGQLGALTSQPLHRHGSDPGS", "experiment": "cell-based", "excerpt": "Confirmation of interaction with the potassium channels was made by means of a functional cell test (patch clamp) that uses HEK-293 recombinant human cells that stably express the hERG ion channel, as described in Zhou Z. et al. Biophys. J. 1998; 74:230.\nConfirmation of interaction with the potassium channels was made by means of the patch clamp test described in Zhou Z. et al. Biophys. J. 1998; 74:230 using the recombinant human cell line HEK-293, which stably expresses the hERG ion channel."}}, "data": [{"molecule": "CC(C)n1nc(C(=O)NCC2CCN(CCc3ccc(C(=O)O)cc3)CC2)c2ccccc21", "note": "[Compound 1, 4-{2-[4-({[(1-Isopropyl-1H-indazol-3-yl)carbonyl]amino}methyl)piperidin-1-yl]ethyl}benzoic acid]", "values": [{"measurement": "IC50", "setting": "[1]", "result": "> 10", "unit": "µM"}, {"measurement": "IC50", "setting": "[2]", "result": "> 10", "unit": "µM"}, {"measurement": "IC50", "setting": "[3]", "result": "> 10", "unit": "µM"}, {"measurement": "IC50", "setting": "[4]", "result": "> 10", "unit": "µM"}, {"measurement": "IC50", "setting": "[5]", "result": "> 10", "unit": "µM"}, {"measurement": "IC50", "setting": "[6]", "result": "> 10", "unit": "µM"}, {"measurement": "IC50", "setting": "[7]", "result": "> 10", "unit": "µM"}, {"measurement": "IC50", "setting": "[8]", "result": 0.0008, "unit": "µM"}, {"measurement": "inhibition of binding to the 5-HT4 receptor (selectivity, in words)", "setting": "[8]; versus the other serotoninergic receptors", "result": "selective inhibition of binding to the 5-HT4 receptor"}, {"measurement": "IC50", "setting": "[9]", "result": "> 10", "unit": "µM"}, {"measurement": "IC50", "setting": "[10]", "result": "> 10", "unit": "µM"}, {"measurement": "IC50", "setting": "[11]", "result": "> 10", "unit": "µM"}, {"measurement": "IC50", "setting": "[12]", "result": "> 50", "unit": "µM"}, {"measurement": "inhibition at 0.01 µM", "setting": "[12]; human", "result": 0, "unit": "%"}, {"measurement": "inhibition at 0.1 µM", "setting": "[12]; human", "result": 0, "unit": "%"}, {"measurement": "inhibition at 1 µM", "setting": "[12]; human", "result": 0.9, "unit": "%"}, {"measurement": "inhibition at 10 µM", "setting": "[12]; human", "result": 6.5, "unit": "%"}, {"measurement": "inhibition at 50 µM", "setting": "[12]; human", "result": 18.8, "unit": "%"}, {"measurement": "melting point", "result": "179 to 181", "unit": "°C"}]}]}
